Source: US20250082687A1, “COMPOSITION FOR IMPROVING MEMORY OR COGNITIVE ABILITY, OR PREVENTING OR TREATING BRAIN NEUROLOGICAL DISEASE, COMPRISING PORCINE BRAIN ENZYME HYDROLYSATE” (UNIMED PHARMACEUTICALS INC., priority 2022, published 2025)
Where a SMILES comes first, the peptide text is derived from it.

What was measured:
[1] = Cytotoxicity of peptides (MTT cell viability); assay type: cell-based, human; conditions: human, SH-SY5Y cells, all tested concentrations (0.4˜40 ug/ml)
Procedure: (§1) SH-SY5Y cells, a human neuronal cell line, were obtained from the Korean Cell Line Bank (Cat No. 22266) and were cultured in Roswell Park Memorial Institute (RPMI) 1640 Medium (RPMI 1640, Cytiba) medium containing 10% fetal bovine serum (FBS, Cytiba) and 100 IU/ml penicillin and 100 μg/ml streptomycin in a 5% CO2, 37° C. incubator.
(§2) The human neuronal cell line SH-SY5Y was cultured and various concentrations of porcine brain enzyme hydrolysate-derived peptides were added to determine cell viability by MTT (methylthiazol tetrazolium bromide, Sigma Aldrich). Cells were seeded in appropriate amounts (1×10^5/well) in each well of a 24 well plate (BD, Falcon), treated with each concentration, and cell viability was determined after 48 hours of incubation in a 37° C. incubator. After 4 hours of reaction with MTT solution, the insoluble formazan crystals were dissolved by adding 400 μl of DMSO and the absorbance was measured with an ELISA reader (TECAN, Infinite M200 pro) at a wavelength of 570 nm.

SH-SY5Y cells = assay: Cytotoxicity of peptides (MTT cell viability); assay type: cell-based, human; conditions: 40 ug/mL (w/v), 48 hours
Procedure: as §1, §2

| SMILES | viability at 48 h [1] [%] | cell viability (SH-SY5Y cells) |
| --- | --- | --- |
| CC[C@H](C)[C@H](NC(=O)[C@H](CO)NC(=O)[C@@H]1CCCN1)C(=O)N[C@@H](CO)C(=O)O [brPEP-1, PSIS] (H-PSIS-OH) | > 90 | 93.05%±2.23% |
| C[C@H](NC(=O)[C@@H]1CCCN1C(=O)CN)C(=O)NCC(=O)N1CCC[C@H]1C(=O)N[C@@H](CCC(N)=O)C(=O)NCC(=O)N1CCC[C@H]1C(=O)N[C@@H](CCCNC(=N)N)C(=O)O [brPEP-2, GPAGPQGPR] | > 90 | 108.47%±5.20% |
